Reference: PMC9888480, “Carboranyl-1,8-naphthalimide intercalators induce lysosomal membrane permeabilization and ferroptosis in cancer cell lines” (Journal of Enzyme Inhibition and Medicinal Chemistry, 2023)
Where two headings read alike, the source gives them in different places.

Key:
HepG2 [1] = test: In vitro cytotoxic activity, MTT assay; assay type: cell-based, human; conditions: concentration required to inhibit cell growth by 50%
Excerpt: The in vitro cytotoxic activity of the obtained carborane-1,8-naphthalimide conjugates was investigated by examining their cytotoxic effects using the MTT (3–(4,5-dimethylthiazol-2-yl)-2,5-diphenyltetrazolium bromide) dye assay[38]^,[39] against the human cancer cell line HepG2 established from hepatocellular carcinoma (for compounds 12–19 and 30–37) and against human lung fibroblasts (MRC-5) (for compounds 34–37). The IC50 values—the drug concentration (µM) required to inhibit cell growth by 50%—determined for the synthesised compounds are summarised in Table 2.
The cytotoxic properties of the synthesised compounds were evaluated using the human hepatocellular carcinoma cell line (HepG2) and human lung fibroblasts (MRC-5). The HepG2 and MRC-5 cell lines were purchased from American Type Culture Collection (ATCC, Manassas, VA, USA). The HepG2 cells were propagated in Eagle’s minimal essential medium (EMEM, ATCC, Manassas, VA, USA), supplemented with 10% inactivated foetal bovine serum (FBS, Life Technologies, Warsaw, Poland) and 100 units/ml penicillin G with […] streptomycin (Life Technologies, Warsaw, Poland). The cells were incubated at 37 °C in a humidified atmosphere containing 5% CO2. Upon reaching 80–90% confluency, the cells were harvested with 0.25% trypsin in 1 mM EDTA (Life Technologies, Warsaw, Poland) and transferred to 96-well microplates at 2 × 10^4 cells/well. After overnight incubation of cells at 37 °C in a humidified atmosphere containing 5% CO2, the culture medium was removed and replaced with a freshly prepared solution of compounds in the culture medium or medium itself as the control group. The stock solutions of each compound were prepared in DMSO at a concentration of 100 mM and were diluted with the growth medium supplemented with 10% FBS to ensure drug dissolution to obtain concentrations ranging from 0.1 to 1000 µM. Cytotoxicity was evaluated using the MTT assay. After incubation with the compounds, the cells were treated with MTT dye solution (5 mg/ml) for 2 h and lysed with a solvent solution containing DMF (45 ml), sodium dodecylsulfate (13.5 g), and distilled water (55 ml). After overnight incubation at 37 °C, optical density at 550 nm, with a reference wavelength of 670 nm, was measured in an ELISA reader (VarioskanLux, Thermo Scientific, Waltham, MA, USA). All determinations were carried out in triplicate. Results were calculated as the percentage of control group viability. The IC50 values of the compounds were calculated in an Excel add-in ED50V10.

ct-DNA [2] = test: UV–vis spectra titration with ct-DNA (binding constant Kb); set-up: species or system calf; conditions: for Kb compared to that of mitonafide: mitonafide Kb 2.54 × 10^5
Experimental: The measurements were performed by adding aliquots of DMSO stock solution of the tested compounds to the buffer solution (pH 7.4, 20 mM, 50 mM NaCl, Tris–HCl buffer, DMSO content of the final solutions = 0.54–0.65%) to the final concentration 10 µM. The tested compounds were incubated for 5 min, with increasing concentrations ranging from 0 to 15 µM of ct-DNA at 37 °C. Then, the UV–vis absorption spectra between 300 and 500 nm were recorded using a GBC Cintra10 UV–VIS spectrometer equipped with a GBC Thermocell Peltier Power Supply with the use of a 1-cm-path-length cell. The binding constant was calculated according to the following equation[70]: A0/A−A0= εG/εH−G−εG+ εG/εH−G−εG × 1/Kb[DNA] where Kb is the binding constant; A0 and a are absorbances of the free tested compound and the apparent one; εG and εH–G are their coefficient, respectively; [DNA] is the concentration of DNA in base pairs. The slope to intercept ratio of the plot between A0/A − A0 and 1/[DNA] yielded the binding constant.

ct-DNA [3] = test: Melting temperature (Tm) measurements of ct-DNA; assay type: binding, calf; conditions: r = [compound]/[ct-DNA] = 0.3, cacodylate buffer pH 7.0; Tm of free ct-DNA 74 °C; error ±0.5 °C
Experimental: The measurements were carried out by adding aliquots of DMSO stock solution of the tested compounds to the buffer solution (pH 7.0, 20 mM, cacodylate buffer, DMSO content of the final solution = 0.33–0.39%). Tm curves were collected at r = 0.3 (r = [compound]/[ct-DNA]) to assure the dominant binding mode. Thermal melting curves were plotted considering the absorption change at 260 nm as a function of temperature using a GBC Cintra10 UV–VIS spectrometer (Dandenong, Australia) equipped with a GBC Thermocell Peltier Power Supply (Dandenong, Australia) with the use of a 1-cm-path-length cell. The absorbance of the samples was monitored at 260 nm from 35 to 95 °C with a heating rate of 1 °C/min. Tm values are the midpoints or the transition curves determined from the maximum of the first derivative. ΔTm values were calculated by subtracting the Tm of the free nucleic acid from the Tm of the sample. All ΔTm values reported in the study were measured in triplicate. The error in ΔTm was ±0.5 °C.

ct-DNA [4] = test: Circular dichroism (CD) measurements of ct-DNA; assay type: binding, calf; conditions: increasing concentration of conjugate, r = 0.1–0.5, cacodylate buffer pH 7.0
Experimental: The measurements were performed by adding aliquots of DMSO stock solution of the tested compounds to the buffer solution (pH 7.0, 20 mM, cacodylate buffer, DMSO content of the final solutions = 0.22–1.30%). Changes in the CD spectrum of ct-DNA upon the addition of compound were measured at different molar ratios r = [compound]/[ct-DNA]. CD spectra were recorded on a JASCO J-815 CD spectrometer with a JASCO PFD-425S Peltier thermostated cell holder (JASCO, Tokyo, Japan) by using a square quartz cuvette of path length 0.5 cm (0.5 ml) in the 230–400 nm region. The CD profiles reported were an average of three successive scans with a scan time of 200 nm per minute and an appropriately corrected baseline. Temperature was maintained at 20 °C during the experiment.

ct-DNA [5] = system: ct-DNA; set-up: method as in PMID 33803403; conditions: unmodified mitonafide and pinafide; cited from earlier work
HepG2 [6] = system: HepG2; set-up: method as in PMID 31776032; conditions: footnote of Table 2, reference compounds; cited from earlier work
human topoisomerase IIα = biological target: human topoisomerase IIα; set-up: method as in PMID 35562989; conditions: earlier study of 4-carboranyl-1,8-naphthalimides; read-out: anti-Topo II activity IC50; cited from earlier work
HepG2 cells = system: HepG2 cells; set-up: method as in PMID 31776032; conditions: earlier N-imide derivatives; cited from earlier work

| Compound | IC50 (HepG2 [1]) [µM] | Kb compared to that of mitonafide (ct-DNA [2]) | ΔTm ct-DNA (ct-DNA [3]) [°C] | change in the CD spectra of ct-DNA (ct-DNA [4]) | further results |
| --- | --- | --- | --- | --- | --- |
| 4-[(2-[3–(1,2-Dicarba-closo-dodecaborane-1-yl)propanamido]ethyl)amino]-3-nitro-N-[2-(N-pyrrolidinyl)ethyl]-1,8-naphthalimide [Compound 14] | 8.97 ± 1.13 | similar | 3.33 | disturbed | – |
| 4-[(2-[3–(1,2-Dicarba-closo-dodecaborane-1-yl)propanamido]ethyl)amino]-N-[2-(dimethylamino)ethyl]-3-nitro-1,8-naphthalimide [Compound 12] | 21.7 ± 0.95 | similar | 3.33 | did not cause any appreciable change | – |
| 4-[(2-[3–(1,7-Dicarba-closo-dodecaborane-1-yl)propanamido]ethyl)amino]-3-nitro-N-[2-(N-pyrrolidinyl)ethyl]-1,8-naphthalimide [Compound 15] | 9.23 ± 0.35 | similar | 5.00 | disturbed | – |
| 4-[(2-[3–(1,7-Dicarba-closo-dodecaborane-1-yl)propanamido]ethyl)amino]-N-[2-(dimethylamino)ethyl]-3-nitro-1,8-naphthalimide [Compound 13] | 9.2 ± 0.68 | – | 3.67 | did not cause any appreciable change | – |
| 4-[(2-[(1,2-Dicarba-closo-dodecaborane-1-yl)ethylamino]ethyl)amino]-3-nitro-N-[2-(N-pyrrolidinyl)ethyl]-1,8-naphthalimide [Compound 32] | 8.12 ± 0.88 | approximately 1.5 fold | 0.33 | disturbed | – |
| 4-[(2-[(1,2-Dicarba-closo-dodecaborane-1-yl)ethylamino]ethyl)amino]-N-[2-(dimethylamino)ethyl]-3-nitro-1,8-naphthalimide [Compound 30] | 4.51 ± 0.66 | – | 3.33 | disturbed | – |
| 4-[(2-[(1,7-Dicarba-closo-dodecaborane-1-yl)ethylamino]ethyl)amino]-3-nitro-N-[2-(N-pyrrolidinyl)ethyl]-1,8-naphthalimide [Compound 33] | 20.6 ± 3.83 | – | 0.33 | did not cause any appreciable change | changes in the absorbance on addition of ct-DNA (ct-DNA [2]; UV–vis, 1.25–15 µM ct-DNA, 10 µM compound): changes in the absorbance were not observed |
| 4-[(2-[(1,7-Dicarba-closo-dodecaborane-1-yl)ethylamino]ethyl)amino]-N-[2-(dimethylamino)ethyl]-3-nitro-1,8-naphthalimide [Compound 31] | 11.6 ± 0.62 | similar | 1.67 | did not cause any appreciable change | bathochromic effect (ct-DNA [2]; UV–vis, addition of 1.25–15 µM ct-DNA to 10 µM compound): 6 nm |
| 4-[(6-[3–(1,2-Dicarba-closo-dodecaborane-1-yl)propanamido]hexyl)amino]-3-nitro-N-[2-(N-pyrrolidinyl)ethyl]-1,8-naphthalimide [Compound 18] | 4.79 ± 0.8 | approximately 1.5 fold | – | – | – |
| 4-[(6-[3–(1,2-Dicarba-closo-dodecaborane-1-yl)propanamido]hexyl)amino]-N-[2-(dimethylamino)ethyl]-3-nitro-1,8-naphthalimide [Compound 16] | 5.12 ± 0.87 | approximately 1.5 fold | – | – | – |
| 4-[(6-[3–(1,7-Dicarba-closo-dodecaborane-1-yl)propanamido]hexyl)amino]-3-nitro-N-[2-(N-pyrrolidinyl)ethyl]-1,8-naphthalimide [Compound 19] | 5.86 ± 0.56 | – | – | – | – |
| 4-[(6-[3–(1,7-Dicarba-closo-dodecaborane-1-yl)propanamido]hexyl)amino]-N-[2-(dimethylamino)ethyl]-3-nitro-1,8-naphthalimide [Compound 17] | 8.03 ± 1.25 | similar | – | – | – |
| CN(C)CCN1C(=O)c2cccc3cc([N+](=O)[O-])cc(c23)C1=O [mitonafide] | – | – | – | – | ΔTm (ct-DNA [5]): 5.17 °C; IC50 (HepG2 [6]): < 1 µM; IC50 (human topoisomerase IIα): 5.13 µM |
| O=C1c2cccc3cc([N+](=O)[O-])cc(c23)C(=O)N1CCN1CCCC1 [pinafide] | – | – | – | – | ΔTm (ct-DNA [5]): 6.50 °C; IC50 (HepG2 [6]): 1.23 µM |
| N-[2-(N-pyrrolidinyl)ethyl]-4-[(2–(3–(1,2-dicarba-closo-dodecaborane-1-yl)propanamido)ethyl)amino]-1,8-naphthalimide | – | – | – | – | IC50 (human topoisomerase IIα): 2.81 µM |
| N-[2-(dimethylamino)ethyl]-4-{1-[3-(1,2-dicarba-closo-dodecaborane-1-yl)propyl]-1H-1,2,3-triazol-4-yl}-1,8-naphthalimide | – | – | – | – | IC50 (human topoisomerase IIα): 0.58 µM |
| N-[2–(3,3′-commo-bis(1,2-dicarba-3-cobalta(III)-closo-dodecaborate-1-yl)ethyl)]-1,8-naphthalimide | – | – | – | – | intracellular ROS production (fluorescence intensity) (HepG2 cells): approximately twofold increase |
| N-[3–(1,2-dicarba-closo-dodecaborane-1-yl)propyl]-1,8-naphthalimide | – | – | – | – | intracellular ROS production (fluorescence intensity) (HepG2 cells): approximately twofold increase |
| N-{[2–(3,3′-commo-bis(1,2-dicarba-3-cobalta(III)-closo-dodecaborate-1-yl)ethyl]-1′-aminoethyl)}-1,8-naphthalimide] | – | – | – | – | intracellular ROS production (fluorescence intensity) (HepG2 cells): approximately twofold increase |
